As usually defined, the IC50 is the concentration that gives 50% inhibition. High values mean a need for much substance, low ones inhibition by little substance.

For this experiment, the target named is T1, cathepsin K (Homo sapiens, UniProt P43235).
T1 sequence (P43235 115-329): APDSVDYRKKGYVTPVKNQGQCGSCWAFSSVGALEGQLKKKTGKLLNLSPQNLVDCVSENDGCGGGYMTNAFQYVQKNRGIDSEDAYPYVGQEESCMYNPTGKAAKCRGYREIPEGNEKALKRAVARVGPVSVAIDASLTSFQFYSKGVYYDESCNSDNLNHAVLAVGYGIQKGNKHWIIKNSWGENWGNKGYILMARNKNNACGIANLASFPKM
Briefly: Measurement of cathepsin K inhibitory activity. Type of experiment: biochemical. The conditions noted are these: fluorogenic substrate Boc-Ala-Gly-Pro-Arg-MCA, pH 5.5, 37° C. As to the method:
(i) Measurement of Cathepsin k Inhibitory Activity
65 μL of Cathepsin K Enzyme Reaction Buffer (50 Mmol/L of 2-(N-morpholino)ethanesulfonate, 2 mmol/L of ethylenediaminetetraacetate (EDTA) and 4 mmol/L of dithiothreitol (DTT) were mixed to adjust to pH 5.5), 5 μL of cysteine protease inhibitor solution of several concentrations, 20 μL of synthesized substrate (t-butyloxycarbonyl-L-alanyl-glycyl-L-prolyl-L-arginine-[…]) solution of several concentrations and 10 μL of cathepsin K enzyme solution were mixed and the increase of fluorescence intensity when reacted at 37° C. was measured (λex (excitation wavelength)=355 nm, λem (fluorescence wavelength)=460 nm). As to the substrate and the compound of the present invention, enzyme reactions were carried […]

For `CN1CCN(C(=O)CN2Cc3cnc(C#N)nc3N(CC(C)(C)C)C2=O)CC1` [Example 55(14), 8-(2,2-dimethylpropyl)-6-[2-(4-methyl-1-piperazinyl)-2-oxoethyl]-7-oxo-5,6,7,8-tetrahydropyrimido[4,5-d]pyrimidine-2-carbonitrile], the IC50 amounted to 12 nM.
For `CC(C)(C)Cn1c2nc(C#N)ncc2c(=O)n1Cc1cccs1` [compound 8(2B), 1-(2,2-dimethylpropyl)-3-oxo-2-(2-thienylmethyl)-2,3-dihydro-1H-pyrazolo[3,4-d]pyrimidine-6-carbonitrile] the value was 2.9 nM.
